Our source for the Activity values is patent US7235537B2, “N3 alkylated benzimidazole derivatives as MEK inhibitors” (Array BioPharma, Inc., priority 2002, dated 2007).

The experiment has as its system N-terminal 6 His-tagged, constitutively active MEK1 (2-393). The experiment can be described thus: MEK1 kinase assay (incorporation of γ-33P-phosphate from γ-33P-ATP onto ERK2). The format is biochemical. The conditions noted are these: 5 nM MEK1, 1 μM ERK2, 10 μM ATP, 45 minutes at ambient temperature, 1% DMSO. As to the method: The activity of the compounds of the present invention may be determined by the following procedure. N-terminal 6 His-tagged, constitutively active MEK1 (2-393) is expressed in E. coli and protein is purified by conventional methods (Ahn et al., Science 1994, 265, 966-970). The activity of MEK1 is assessed by measuring the incorporation of γ-^33P-phosphate from γ-^33P-ATP onto N-terminal His tagged ERK2, which is expressed in E. coli and is purified by conventional methods, in the presence of MEK1. The assay is carried out in 96-well polypropylene plate. The incubation mixture (100 μL) comprises of 25 mM Hepes, pH 7.4, 10 mM MgCl2, 5 mM β-glycerolphosphate, 100 μM Na-orthovanadate, 5 mM DTT, 5 nM MEK1, and 1 μM ERK2. Inhibitors are suspended in DMSO, and all reactions, including controls are performed at a final concentration of 1% DMSO. Reactions are initiated by the addition of 10 μM ATP (with 0.5 μCi γ-^33P-ATP/well) and incubated at ambient temperature for 45 minutes. Equal volume of 25% TCA is added to stop the reaction and precipitate the proteins. Precipitated proteins are trapped onto glass fiber B filterplates, and excess labeled ATP washed off using a Tomtec MACH III harvester. Plates are allowed to air-dry prior to adding 30 μL/well of Packard Microscint 20, and plates are counted using a Packard TopCount.

With `O=C(NOCCO)c1cc2[nH]cnc2c(F)c1Nc1ccc(Br)cc1Cl` [Compound 8n], the outcome was active.
Turning to `O=C(NOCC1CC1)c1cc2[nH]cnc2c(F)c1Nc1ccc(Br)cc1Cl` [Compound 11b, 6-(4-Bromo-2-chloro-phenylamino)-7-fluoro-3H-benzoimidazole-5-carboxylic acid cyclopropylmethoxy-amide], the outcome was active.
Turning to `Cc1cc(Br)ccc1Nc1c(C(=O)NOCC2CC2)cc2c(ncn2C)c1F` [Compound 11c], the result was active.
In the case of `O=C(NOCCO)c1cc2c(ncn2CC2CCCCO2)c(F)c1Nc1ccc(Br)cc1Cl` (stereo not drawn) [Compound 11p, 6-(4-Bromo-2-chloro-phenylamino)-7-fluoro-3-(tetrahydro-pyran-2-ylmethyl)-3H-benzoimidazole-5-carboxylic acid (2-hydroxy-ethoxy)-amide], the result was active.
On to `Cc1cc(Br)ccc1Nc1c(C(=O)NOCC2CC2)cc2c(ncn2CCCCN2CCCCC2)c1F` [Compound 18i], for which the outcome was active.
On to `CCCCn1cnc2c(F)c(Nc3ccc(Br)cc3Cl)c(C(=O)NOCC3CC3)cc21` [Compound 29bb], for which the outcome was active.
In the case of `Cn1cnc2c(F)c(Nc3ccc(Br)cc3Cl)c(C(=O)NOCCO)cc21` [Compound 29c, 6-(4-Bromo-2-chloro-phenylamino)-7-fluoro-3-methyl-3H-benzoimidazole-5-carboxylic acid (2-hydroxy-ethoxy)-amide], the result was active.
For the compound `Cn1cnc2c(F)c(Nc3ccc(Br)cc3Cl)c(C(=O)NOC(C)(C)CO)cc21` [Compound 29i], the result was active.
For the compound `Cn1cnc2c(F)c(Nc3ccc(Br)cc3F)c(C(=O)NOCCO)cc21` [Compound 29lll], the outcome was active.
For the compound `Cn1cnc2c(F)c(Nc3ccc(Br)cc3F)c(C(=O)NOC(C)(C)CO)cc21` [Compound 29mmm], the result was active.
As to `Cc1nc(Cn2cnc3c(F)c(Nc4ccc(Br)cc4Cl)c(C(=O)NOCCO)cc32)cs1` [Compound 29s], the result was active.
Turning to `O=C(NOCCO)c1cc2c(ncn2Cc2ccc(Cl)cc2)c(F)c1Nc1ccc(Br)cc1Cl` [Compound 29t], the outcome was active.
